These results are taken from patent US8133686B2 (Van Andel Research Institute, priority 2008, dated 2012).

Each structure is given as a SMILES string. Like-named read-outs stand apart in the source and are kept apart here.

One experiment has as its system SN12C xenografts. Nature of the experiment: SN12C xenograft model, intermittent sunitinib dosing (3 weeks on, 3 weeks off).
The next experiment has as its system A-498 xenografts. Put plainly: A-498 xenograft model, intermittent sunitinib dosing (3 weeks on, 3 weeks off).
In a further experiment the test system is HUVEC and HLMVEC cells. Put plainly: cells. The following applies: Homo sapiens.
A further experiment relates to RCC cell lines. Nature of the experiment: cells. The following applies: Homo sapiens.
[1] abbreviates: preliminary studies (data not shown).
Where [2] appears, read: 40 mg/kg, 3-weeks-on and 3-weeks-off.

With `CCN(CC)CCNC(=O)c1c(C)[nH]c(/C=C2\C(=O)Nc3ccc(F)cc32)c1C` [SU11248, sunitinib], the “treated SN12C xenograft mice showing phenotypic resistance” value with SN12C xenografts (80 mg/kg, 3-weeks-on and 3-weeks-off) worked out at 33%. Also, the results for the “minimal required dosage to induce stable disease” value with SN12C xenografts (setting [1]) and in the experiment on A-498 xenografts (setting [1]) were 80 mg/kg and 40 mg/kg, respectively. Besides, in the experiment with A-498 xenografts (setting [2]), the “treated A-498 xenograft mice showing phenotypic resistance” value is listed as 38%. Besides, in the experiment on A-498 xenografts (setting [2]), the “treated A-498 xenograft mice showing phenotypic resistance (resistant/treated)” value was 13/34. For the same molecule, the IC50 with HUVEC and HLMVEC cells (read-out: IC50 on proliferation of endothelial cell lines) is ~0.01 µM; with HUVEC and HLMVEC cells (read-out: IC50 on proliferation of endothelial cells), ~6 µM; with RCC cell lines (read-out: IC50 on proliferation of RCC cell lines, similar under both conditions: normal culture/complete medium and ligand-dependent/PDGF-only), 4 to 10 µM; with RCC cell lines (read-out: IC50 on proliferation of RCC cells, complete medium), 4 to 10 µM; in the experiment with RCC cell lines (read-out: IC50 on proliferation of RCC cells, ligand-dependent condition), 2 to 6 µM.
